Assay results published in patent US10765115B2 (priority 2015, dated 2020).

What was measured:
[1] = assay type: physicochemical; settings: pH 7
legionella bacteria = assay type: cell-based; settings: initial 10^7 CFU/100 mL, after 24 hours, 36° C., pH 7.0

Row | SMILES | Residual concentration Cl2 (monochlorosulfamic acid as Cl2) [1] [mg/L] | Residual concentration Cl-MIT [1] [µg/L] | Sterilizing rate (legionella bacteria) [%]
1 | Cn1sc(Cl)cc1=O [Sample 11, 5-chloro-2-methyl-4-isothiazoline-3-one] | 0 | 2.1 | 100
2 | Cn1sc(Cl)cc1=O [Sample 17, 5-chloro-2-methyl-4-isothiazoline-3-one] | 0 | 600.0 | 
3 | Cn1sc(Cl)cc1=O [Sample 19, 5-chloro-2-methyl-4-isothiazoline-3-one] | 0 | 1500.0 | 
